{
  "source": "patent US9351486B2",
  "about": "“Combinations of derivatized saccharide surfactants and etheramine oxide surfactants as herbicide adjuvants” (Monsanto Technology LLC, priority 2008, dated 2016)",
  "assay_type_in_all_cases": "in vivo",
  "key": {"[1]": {"system": "VIOAR, Field violet (Viola arvensis Murr.)", "assay": "Greenhouse herbicidal efficacy on VIOAR", "experimental": "(§1) Spray compositions of the Examples, containing an exogenous chemical, such as glyphosate potassium salt, in addition to the excipient ingredients listed, were evaluated for herbicidal efficacy according to the following method.\n(§2) The amount of exogenous chemical was selected to provide the desired rate in grams per hectare (g/ha) when applied in a spray volume of 93 l/ha. Several exogenous chemical rates were applied for each composition. Thus, except where otherwise indicated, when spray compositions were tested, the concentration of exogenous chemical varied in direct proportion to exogenous chemical rate, but the concentration of excipient ingredients was held constant across different exogenous chemical rates.\n(§3) Concentrate compositions were tested by dilution, dissolution or dispersion in water to form spray compositions. In these spray compositions prepared from concentrates, the concentration of excipient ingredients varied with that of exogenous chemical.\n(§4) The herbicidal effectiveness data set forth herein report “inhibition” as a percentage following a standard procedure in the art which reflects a visual assessment of plant mortality and growth reduction by comparison with untreated plants, made by technicians specially trained to make and record such observations. In all cases, a single technician makes all assessments of percent inhibition within any one experiment or trial. Such measurements are relied upon and regularly reported by Monsanto Company in the course of its herbicide business.\n(§5) The efficacy of potassium glyphosate formulations containing an APG surfactant and an EAO surfactant in an APG:EAO weight ratio of 4:1 and a glyphosate a.e. to total surfactant weight ratio of about 2.9:1 were evaluated in greenhouse trials. Also evaluated were potassium glyphosate compositions containing either an alkylpolyglucoside surfactant (designated as “Surfactant L” and “Surfactant N”) or an alkoxylated etheramine oxide surfactant (designated as “Surfactant G”) wherein the weight ratio of glyphosate a.e. to surfactant was about 2.9:1. Finally, the efficacy of potassium glyphosate not containing a surfactant (K-GLY) and comparative compositions 139R8H and 294T6K were also evaluated. The efficacy of each formulation, surfactant and comparative composition was evaluated at application rates of 100, 200 and 400 g glyphosate a.e. per hectare.\n(§6) The efficacy of potassium glyphosate formulations containing various ratios of APG surfactants to EAO surfactants were evaluated in greenhouse trials as compared to comparative compositions 139R8H and 276U4D. The efficacy of each formulation, surfactant and comparative composition was evaluated at application rates of 200, 400 and 600 g glyphosate a.e. per hectare and the results are reported in Table ET4A wherein APG:EAO is the weight ratio of APG surfactant to EAO surfactant and Gly:Surf is the weight ratio of glyphosate a.e. to total surfactant.\nThe efficacy of potassium glyphosate formulations containing Atplus 452 and EAO surfactants were evaluated in greenhouse trials. The efficacy of each formulation, surfactant and comparative composition was evaluated at application rates of 100, 200, 300 and 400 g glyphosate a.e. per hectare and the results are reported in Table ET5A wherein APG:EAO is the weight ratio of APG surfactant to EAO surfactant and Gly:Surf is the weight ratio of glyphosate a.e. to total surfactant."}, "[2]": {"system": "SINAR, wild mustard (Sinapis arvensis L.)", "assay": "Greenhouse herbicidal efficacy on SINAR", "experimental": "as §1, §2, §3, §4, §5\n(§7) The efficacy of potassium glyphosate formulations containing various APG surfactants and an EAO surfactant in an APG:EAO weight ratios and glyphosate a.e. to total surfactant weight ratios (Gly:Surf) as indicated in the tables below. Finally, the efficacy of comparative standard compositions 139R8H and 294T6K were also evaluated. The efficacy of each formulation, surfactant and comparative composition was evaluated at application rates of 100, 200 and 400 g glyphosate a.e. per hectare.\nas §6"}, "MALSI, cheeseweed": {"system": "MALSI, cheeseweed", "assay": "Greenhouse herbicidal efficacy on MALSI", "conditions": "Example ET9; average for 100, 200 and 400 g a.e./ha application rates", "experimental": "as §1\nThe amount of exogenous chemical was selected to provide the desired rate in grams per hectare (g/ha) when applied in a spray volume of 93 l/ha. Several exogenous chemical rates were applied for each composition. […]\nas §6, with “surfactant. For each plant species, efficacy results are reported as the average % control for the three application rates (Table ET4a) and the calculated application rate (g a.e./ha) that must be applied to achieve 85% control (Table ET4b).” for “surfactant.”"}, "LOLMG, annual ryegrass": {"system": "LOLMG, annual ryegrass", "assay": "Greenhouse herbicidal efficacy on LOLMG", "experimental": "as §1, §2, §3\n(§8) The herbicidal effectiveness data set forth herein report “inhibition” as a percentage following a standard procedure in the art which reflects a visual assessment of plant mortality and growth reduction by comparison with untreated plants, made by technicians specially trained to make and record such observations. In all cases, a single technician makes all assessments of percent inhibition within any one experiment or trial. […]\n(§9) The efficacy of formulations containing potassium glyphosate and an APG surfactant (formulation 179W2N) or an EAO surfactant (formulation 179R6U) in a weight percent ratio of glyphosate a.e. to surfactant of 4:1 was evaluated in greenhouse trials as compared to compositions 276U4D, 351L9P, 294T6K and K-GLY. The efficacy of each formulation, surfactant and comparative composition was evaluated at application rates of 100, 200 and 400 g glyphosate a.e. per hectare and the results are reported in Table ET8A wherein APG:EAO is the weight ratio of alkylpolyglucoside (APG) surfactant to alkoxylated amine oxide (EAO) surfactant and Gly:Surf is the weight ratio of glyphosate a.e. to total surfactant. […]"}, "[3]": {"system": "LOLMU, Italian ryegrass (Lolium multiflorum Lam.)", "assay": "Greenhouse herbicidal efficacy on LOLMU", "conditions": "for Application rate required for 85% control, LOLMU: calculated from rates 100, 200 and 400 g a.e./ha; for Average % control, LOLMU: average for 100, 200 and 400 g a.e./ha application rates", "experimental": "as §1, §2, §3, §4, §5, §7"}, "[4]": {"system": "ABUTH, velvetleaf (Abutilon theophrasti Medik.)", "assay": "Greenhouse herbicidal efficacy on ABUTH", "conditions": "for Average % control, ABUTH: average for 100, 200 and 400 g a.e./ha application rates", "experimental": "as §1, §2, §3, §8, §9"}, "[5]": {"system": "CHEAL, common lambsquarters (Chenopodium album L.)", "assay": "Greenhouse herbicidal efficacy on CHEAL", "experimental": "as §1, §2, §3, §4"}, "[6]": {"conditions": "Example ET1, calculated from rates 100, 200 and 400 g a.e./ha"}, "[7]": {"conditions": "Example ET1, greenhouse, average of the three application rates"}, "[8]": {"conditions": "Example ET3, average for 100, 200 and 400 g a.e./ha application rates"}, "[9]": {"conditions": "Example ET3, calculated from rates 100, 200 and 400 g a.e./ha"}, "[10]": {"conditions": "Example ET5, average for 100, 200, 300 and 400 g a.e./ha application rates"}, "[11]": {"conditions": "Example ET5, calculated from rates 100, 200, 300 and 400 g a.e./ha"}, "[12]": {"conditions": "Example ET6, average for 200, 400 and 600 g a.e./ha application rates"}, "[13]": {"conditions": "Example ET6, calculated from rates 200, 400 and 600 g a.e./ha"}, "[14]": {"conditions": "Example ET9, average for 100, 200 and 400 g a.e./ha application rates"}, "[15]": {"conditions": "Example ET2, calculated from rates 100, 200 and 400 g a.e./ha"}},
  "data": [
    {"compound": "O=C(O)CNCP(=O)([O-])O.[K+]", "note": "[K-GLY, potassium glyphosate]", "values": [
      {"measurement": "Application rate required for 85% control, VIOAR", "setting": "[1]; [6]", "result": ">400.0", "unit": "g a.e./ha"},
      {"measurement": "Average % control for 100, 200 and 400 g a.e./ha application rates, VIOAR", "setting": "[1]; [7]", "result": 39.2, "unit": "%"},
      {"measurement": "Average % control, VIOAR", "setting": "[1]; [8]", "result": 27.5, "unit": "%"},
      {"measurement": "Application rate required for 85% control, VIOAR", "setting": "[1]; [9]", "result": ">400.0", "unit": "g a.e./ha"},
      {"measurement": "Average % control, VIOAR", "setting": "[1]; [10]", "result": 34.7, "unit": "%"},
      {"measurement": "Application rate required for 85% control, VIOAR", "setting": "[1]; [11]", "result": ">400.0", "unit": "g a.e./ha"},
      {"measurement": "VIOAR (ave. cntrl)", "setting": "[1]; [12]", "result": 31.7, "unit": "%"},
      {"measurement": "VIOAR (g a.e./ha for 85% control)", "setting": "[1]; [13]", "result": ">600.0", "unit": "g a.e./ha"},
      {"measurement": "Average % control, VIOAR", "setting": "[1]; [14]", "result": 36.7, "unit": "%"},
      {"measurement": "Application rate required for 85% control, SINAR", "setting": "[2]; [6]", "result": ">400.0", "unit": "g a.e./ha"},
      {"measurement": "Average % control for 100, 200 and 400 g a.e./ha application rates, SINAR", "setting": "[2]; [7]", "result": 67.5, "unit": "%"},
      {"measurement": "Average % control, SINAR", "setting": "[2]; Example ET2, average for 100, 200 and 400 g a.e./ha application rates", "result": 64.1, "unit": "%"},
      {"measurement": "Application rate required for 85% control, SINAR", "setting": "[2]; [15]", "result": ">400.0", "unit": "g a.e./ha"},
      {"measurement": "Average % control, SINAR", "setting": "[2]; [10]", "result": 72.5, "unit": "%"},
      {"measurement": "Application rate required for 85% control, SINAR", "setting": "[2]; [11]", "result": 366.7, "unit": "g a.e./ha"},
      {"measurement": "SINAR 10 DAT (ave. Ctrl)", "setting": "[2]; Example ET7, 10 DAT, average for 50, 100 and 300 g a.e./ha application rates", "result": 74.6, "unit": "%"},
      {"measurement": "SINAR 10 DAT (g a.e./ha for 85% control)", "setting": "[2]; Example ET7, 10 DAT, calculated from rates 50, 100 and 300 g a.e./ha", "result": 227.3, "unit": "g a.e./ha"},
      {"measurement": "Average % control, MALSI", "setting": "MALSI, cheeseweed", "result": 22.8, "unit": "%"},
      {"measurement": "Average % control, LOLMG", "setting": "LOLMG, annual ryegrass; [10]", "result": 42.5, "unit": "%"},
      {"measurement": "Application rate required for 85% control, LOLMG", "setting": "LOLMG, annual ryegrass; [11]", "result": ">400.0", "unit": "g a.e./ha"},
      {"measurement": "Average % control, LOLMG", "setting": "LOLMG, annual ryegrass; [14]", "result": 37.8, "unit": "%"},
      {"measurement": "Application rate required for 85% control, LOLMU", "setting": "[3]; Example ET1", "result": ">400.0", "unit": "g a.e./ha"},
      {"measurement": "Average % control for 100, 200 and 400 g a.e./ha application rates, LOLMU", "setting": "[3]; [7]", "result": 40.8, "unit": "%"},
      {"measurement": "Average % control, LOLMU", "setting": "[3]; Example ET2", "result": 58.1, "unit": "%"},
      {"measurement": "Application rate required for 85% control, LOLMU", "setting": "[3]; Example ET2", "result": ">400.0", "unit": "g a.e./ha"},
      {"measurement": "Average % control, LOLMU", "setting": "[3]; Example ET3", "result": 27.9, "unit": "%"},
      {"measurement": "Application rate required for 85% control, LOLMU", "setting": "[3]; Example ET3", "result": ">400.0", "unit": "g a.e./ha"},
      {"measurement": "LOLMU 23 DAT (ave. control)", "setting": "[3]; Example ET7, 23 DAT, average for 50, 100 and 300 g a.e./ha application rates", "result": 48.3, "unit": "%"},
      {"measurement": "LOLMU 23 DAT (g a.e./ha for 85% control)", "setting": "[3]; Example ET7, 23 DAT, calculated from rates 50, 100 and 300 g a.e./ha", "result": ">300.0", "unit": "g a.e./ha"},
      {"measurement": "Average % control, ABUTH", "setting": "[4]; Example ET2", "result": 40.0, "unit": "%"},
      {"measurement": "Application rate required for 85% control, ABUTH", "setting": "[4]; [15]", "result": 400.0, "unit": "g a.e./ha"},
      {"measurement": "Average % control, ABUTH", "setting": "[4]; Example ET9", "result": 27.2, "unit": "%"},
      {"measurement": "Average % control, CHEAL", "setting": "[5]; [8]", "result": 5.0, "unit": "%"},
      {"measurement": "Application rate required for 85% control, CHEAL", "setting": "[5]; [9]", "result": ">400.0", "unit": "g a.e./ha"},
      {"measurement": "CHEAL (ave. cntrl)", "setting": "[5]; [12]", "result": 33.3, "unit": "%"},
      {"measurement": "CHEAL (g a.e./ha for 85% control)", "setting": "[5]; [13]", "result": ">600.0", "unit": "g a.e./ha"}
    ]}
  ]
}
